Assay results: article PMC4501720 (PLoS ONE, 2015)

Tested on: whole blood cells of group 3 pigs vaccinated with BCG-pAg85A
Type: cell-based, pigs (Sus scrofa domestica)

Substance | IFN-γ levels, BCG / pAg85A animal number 1 | IFN-γ levels, BCG / pAg85A animal number 2 | IFN-γ levels, BCG / pAg85A animal number 3 | IFN-γ levels, BCG / pAg85A animal number 4 | IFN-γ levels, BCG / pAg85A animal number 5 | IFN-γ levels, BCG / pAg85A animal number 6
121–140: synthetic overlapping peptide of mature Ag85A, aa 121–140 (AVVGLSMAASSALTLAIYHP; UniProt P9WQP3 164-183, looked up, fragment) | 16,699 pg/mL | 2,367 pg/mL | 306 pg/mL | <5 pg/mL | 1,023 pg/mL | <5 pg/mL
251–270: synthetic overlapping peptide of mature Ag85A, aa 251–270 (NGVFDFPDSGTHSWEYWGAQ; UniProt P9WQP3 294-313, looked up, fragment) | 410 pg/mL | 317 pg/mL | <5 pg/mL | 11 pg/mL | 161 pg/mL | 163 pg/mL
161–180: synthetic overlapping peptide of mature Ag85A, aa 161–180 (PTLIGLAMGDAGGYKASDMW; UniProt P9WQP3 204-223, looked up, fragment) | 1,501 pg/mL | <5 pg/mL | 556 pg/mL | 37 pg/mL | 463 pg/mL | <5 pg/mL
211–230: synthetic overlapping peptide of mature Ag85A, aa 211–230 (CGNGKPSDLGGNNLPAKFLE; UniProt P9WQP3 254-273, looked up, fragment) | 46 pg/mL | <5 pg/mL | 13 pg/mL | <5 pg/mL | <5 pg/mL | 218 pg/mL
71–90: synthetic overlapping peptide of mature Ag85A, aa 71–90 (PVGGQSSFYSDWYQPACGKA; UniProt P9WQP3 114-133, looked up, fragment) | 217 pg/mL | <5 pg/mL | <5 pg/mL | <5 pg/mL | 289 pg/mL | <5 pg/mL
151–170: synthetic overlapping peptide of mature Ag85A, aa 151–170 (GLLDPSQAMGPTLIGLAMGD; UniProt P9WQP3 194-213, looked up, fragment) | 1,020 pg/mL | <5 pg/mL | 257 pg/mL | 71 pg/mL | 349 pg/mL | <5 pg/mL
21–40: synthetic overlapping peptide of mature Ag85A, aa 21–40 (DIKVQFQSGGANSPALYLLD; UniProt P9WQP3 64-83, looked up, fragment) | <5 pg/mL | 681 pg/mL | <5 pg/mL | 128 pg/mL | 142 pg/mL | <5 pg/mL
191–210: synthetic overlapping peptide of mature Ag85A, aa 191–210 (NDPLLNVGKLIANNTRVWVY; UniProt P9WQP3 234-253, looked up, fragment) | 266 pg/mL | <5 pg/mL | 156 pg/mL | 38 pg/mL | 560 pg/mL | <5 pg/mL
241–260: synthetic overlapping peptide of mature Ag85A, aa 241–260 (QDAYNAGGGHNGVFDFPDSG; UniProt P9WQP3 284-303, looked up, fragment) | 40 pg/mL | <5 pg/mL | <5 pg/mL | <5 pg/mL | <5 pg/mL | 66 pg/mL
Ag85A tub: recombinant E. coli derived histidine-tagged Ag85A of M. tuberculosis | 145,331 pg/mL | 50,084 pg/mL | 68,850 pg/mL | 3,712 pg/mL | 27,544 pg/mL | 14,506 pg/mL
221–240: synthetic overlapping peptide of mature Ag85A, aa 221–240 (GNNLPAKFLEGFVRTSNIKF; UniProt P9WQP3 264-283, looked up, fragment) | 470 pg/mL | 4,455 pg/mL | 1,075 pg/mL | <5 pg/mL | 303 pg/mL | 2,980 pg/mL
101–120: synthetic overlapping peptide of mature Ag85A, aa 101–120 (LTSELPGWLQANRHVKPTGS; UniProt P9WQP3 144-163, looked up, fragment) | 150 pg/mL | 1,646 pg/mL | 1,177 pg/mL | <5 pg/mL | 319 pg/mL | <5 pg/mL
11–30: synthetic overlapping peptide of mature Ag85A, aa 11–30 (LQVPSPSMGRDIKVQFQSGG; UniProt P9WQP3 54-73, looked up, fragment) | <5 pg/mL | 1,115 pg/mL | <5 pg/mL | <5 pg/mL | 80 pg/mL | <5 pg/mL
275–294: synthetic overlapping peptide of mature Ag85A, aa 275–294 (KPDLQRALGATPNTGPAPQG; UniProt P9WQP3 318-337, looked up, fragment) | 57 pg/mL | <5 pg/mL | <5 pg/mL | <5 pg/mL | 114 pg/mL | 77 pg/mL
51–70: synthetic overlapping peptide of mature Ag85A, aa 51–70 (WDINTPAFEWYDQSGLSVVM; UniProt P9WQP3 94-113, looked up, fragment) | 5,083 pg/mL | <5 pg/mL | <5 pg/mL | <5 pg/mL | 3,125 pg/mL | <5 pg/mL
61–80: synthetic overlapping peptide of mature Ag85A, aa 61–80 (YDQSGLSVVMPVGGQSSFYS; UniProt P9WQP3 104-123, looked up, fragment) | 8,179 pg/mL | 354 pg/mL | 579 pg/mL | 75 pg/mL | 3,611 pg/mL | 444 pg/mL
171–190: synthetic overlapping peptide of mature Ag85A, aa 171–190 (AGGYKASDMWGPKEDPAWQR; UniProt P9WQP3 214-233, looked up, fragment) | 328 pg/mL | <5 pg/mL | 1,066 pg/mL | 22 pg/mL | 170 pg/mL | <5 pg/mL
1–20: synthetic overlapping peptide of mature Ag85A, aa 1–20 (FSRPGLPVEYLQVPSPSMGR; UniProt P9WQP3 44-63, looked up, fragment) | <5 pg/mL | 305 pg/mL | <5 pg/mL | <5 pg/mL | 84 pg/mL | 13,875 pg/mL
